Here are results for 2 molecules from patent US8097725B2, “Luminescent indicator dye and optical sensor” (Roche Diagnostics Operations, Inc., priority 2004, dated 2012).

For data set [1] the following is noted: immobilized in a hydrogel matrix; FIG. 3 in Werner et al.; cited from earlier work.
Data set [2] is described as follows: pH titration of luminescence intensity of the optical sensor disc. The format is physicochemical. The procedure: The indicator layer casting solution was coated onto a polyester foil (Melinex foil, ICI America) and the solvent was evaporated. The final dry thickness of the indicator layer was approximately 10 μm. Then, the overcoat layer casting solution was coated onto the indicator layer and the solvent was evaporated. The final a dry thickness of the overcoat layer was about 5 μm. Then, a small sensor disc (2.5 cm diameter) was punched out and soaked in buffer for at least 17 h for activation.
Aliquots of solutions A and B were mixed in appropriate rations to obtain eleven pH buffer solutions of pH 2.67, 3.66, 5.41, 6.35, 6.74, 7.28, 7.76, 8.29, 8.78, 9.81, 10.79, respectively. The pHs were determined at 37° C. with a standard glass electrode.
The sensor discs thus obtained were used in the measuring set-up represented schematically in FIG. 2. In FIG. 2, the reference character S denotes a portion of the sensor disc. […]
[formula] L denotes luminescence intensity and Lm denotes maximum luminescence intensity. […] (ON intensity=luminescence intensity of the protonated species (i.e., in FIG. 3 the intensity at pHs<5), OFF intensity=intensity of the deprotonated species (i.e., in FIG. 3 the intensity at pHs>10).

`CC1=CC(C)=[N+]2C1=C(c1ccc(N(C)C)cc1)c1c(C)cc(C)n1[B-]2(F)F` [1,3,5,7-tertramethyl-8-(4-dimethylamino)-4-difluorobora-3a,4a-diaza(s)-indacene]: the pK in data set [1] is 3.3.
For `O=C(O)c1ccc(CN2C(=O)c3cccc4c(NCCc5cc(Cl)c(O)c(Cl)c5)ccc(c34)C2=O)cc1` [Dye A41], the “OFF intensity as percentage of ON intensity” value in data set [2] (ON = protonated species (pH<5), OFF = deprotonated species (pH>10)) is recorded as 5%. The pK value in data set [2] (immobilized on PVP beads dispersed in hydrophilic polymer layer, 37° C., buffers pH 2.67-10.79, least squares fit of intensity vs pH, excitation 480 nm, emission 520 nm cut-off) is on record as 7.25.
